Entries after “also recorded” stand apart in the source; their conditions may differ.
Key:
β-adrenergic receptor = test: Left ventricular [3H]CGP-12177 saturation binding after treatment; parameters: species or system beagle dogs; conditions: 10 mg/kg/day
Description: Ventricles were homogenized in 50 mM Tris-HCl, 5 mM Na2EDTA buffer (pH 7.4 at 4° C.) using a Polytron P-10 tissue disrupter (setting 10, 2×15 second bursts). Homogenates were centrifuged at 500×g for 10 minutes and the supernatants stored on ice. The pellets were washed by resuspension and centrifugation at 500×g and the supernatants combined. The combined supernatants were centrifuged at 48,000×g for 20 minutes. The pellets were washed by resuspension and centrifugation once in homogenizing buffer and twice in 50 mM Tris-HCl, 0.5 mM EDTA buffer (pH 7.4 at 4° C.). Membranes were stored at −70° C. until required. Saturation experiments were conducted using [^3H] CGP-12177 in buffer containing 50 mM Tris-HCl, 0.5 mM EDTA (pH 7.4 at 32° C.). Non-specific binding was defined by 10 uM isoproterenol. Total bound, non-specific bound and total count tubes were set up for eight concentrations of [^3H] […] Aquasol scintillation fluid was added to each vial and radioactivity determined by liquid scintillation counting. Saturation binding isotherms were analyzed after first converting total ligand concentrations to free ligand concentrations (total−bound=free). […] Tissue catecholamine levels were analyzed by comparing nepicastat-treated groups with the placebo (control) treated groups. […] Additionally, a linear orthogonal contrast was calculated for all three doses within the context of a one-way ANOVA. […]

mice = test: Gross motor behavior and locomotor activity after acute dosing; type: in vivo
[1] = test system: dopamine/norepinephrine ratio; test: Dose response of tissue dopamine/norepinephrine ratio 6 hours after a single oral dose; type: in vivo, SHR
[2] = test system: mean arterial pressure and heart rate; test: Heart rate and mean arterial pressure in restrained SHR with SCH-23390 pretreatment; type: in vivo, spontaneous hypertensive rats
Source text: Male, spontaneous hypertensive rats (280-345 g; Charles River Labs, Kingston, N.Y.) were fasted overnight then anesthetized with ether. A femoral artery and femoral vein were cannulated with PE50 tubing for recording of blood pressure and administration of compounds, respectively. Animals were then placed in MAYO restrainers and their feet loosely taped to the restrainer. Heparinized saline (50 units sodium heparin/ml) was used to maintain patency of each cannula throughout the experiment. The following parameters were continuously recorded using Modular Instruments MI^2 BioReport™ software installed on an IBM personal computer: mean arterial pressure (MAP), heart rate (HR), and the change from baseline for each parameter at specified time points in the experiment.
All compounds were dissolved on the day of use. nepicastat was dissolved in deionized water (vehicle) to a free base concentration of 1 mg/ml. Oral dosing volume for nepicastat or vehicle was 10 ml/kg. SCH-23390 was dissolved in saline (vehicle) to a free base concentration of 0.2 mg/ml. […] or saline were administered intravenously as a bolus in a volume of 1.0 ml/kg followed by 0.2 ml flush of isotonic saline.
Following surgical preparation, each animal was allowed a minimum one hour recovery period. Animals were randomly assigned to four treatment groups: vehicle (iv)/vehicle (po); vehicle (iv)/nepicastat (po); SCH-23390 (iv)/vehicle (po); or SCH-23390 (iv)/nepicastat (po). Once animals were stabilized (minimum one hour), baseline blood pressure and heart rate was determined by taking an average of each parameter over a 15 min period of time. Once baseline blood pressure and heart rate were established, animals were dosed intravenously with either SCH-23390 (200 μg/kg) or vehicle (saline, 1 ml/kg). Fifteen minutes later, animals were orally dosed with either nepicastat (10 mg/kg) or vehicle (deionized water, 10 ml/kg).
Recorded parameters were measured 15 min prior to intravenous dosing to establish baseline blood pressure and heart rate. Recorded parameters were then measured at 5, 10, and 15 min following intravenous administration of SCH-23390 or vehicle. Following oral administration of nepicastat or vehicle, recorded parameters were measured at 15, 30, 60, 90, 120, 150, 180, 210, and 240 min.
At the end of the experiment, each animal was anesthetized with halothane and euthanized via decapitation. The cortex, left ventricle (apex), and mesenteric artery were dissected out, weighed, and fixed in 0.4 M perchloric acid. […] Blood pressure and heart rate were analyzed separately. The change from baseline for blood pressure and heart rate were analyzed by an analysis of variance (ANOVA) with effects for treatment, time, and their interaction. […]

body core temperature = test: Body core temperature during 10 day chronic dosing; conditions: b.i.d. oral: nepicastat 5, 15, 50 mg/kg; SKF-102698 50 mg/kg; clonidine 20 ug/kg; d-amphetamine 2 mg/kg; days 1, 5, 10
Description: The effects of chronic dosing of nepicastat were examined. Between three and thirteen days prior to the first dosing day the rats were placed inside the startle apparatus and after a five minute acclimation period they were presented with a 118 dB noise burst on average once a minute (a variable inter-trial interval ranging between 30 and 90 seconds will be used) for 20 minutes. The startle responses were measured and a mean for the last twenty startle response was calculated for each rat.
Rat body core temperatures were obtained by inserting the rectal probe 2 cm into the colon of each rat. Each rat's body core temperature was measured three times and the average of the three reading was calculated. Body core temperature readings were obtained immediately prior to the ten day chronic dosing schedule (to obtain a baseline), and three and half hour after the morning daily dose of nepicastat, and SKF-102698, and 15 minutes prior to the daily administration of clonidine and d-amphetamine, on dosing days one, five and ten. […] Both clonidine (an alpha2 agonist), and d-amphetamine (a dopamine releaser) were used as the positive controls for this assay.
An overall one-way ANOVA with a main effect for treatment was performed at each time on the change from baseline for each animal. Subsequent t-tests were performed for each comparison of interest.

| Compound | β-adrenergic receptor binding, treated vs vehicle left ventricular samples (β-adrenergic receptor) | gross motor behavior (mice; 1.0-30 mg/kg p.o., acute) | locomotor activity (mice; 10-100 mg/kg i.p.) | dose with significant change in dopamine/norepinephrine ratio, cerebral cortex [1] [mg/kg] | dose with significant change in dopamine/norepinephrine ratio, left ventricle [1] [mg/kg] | dose with significant change in dopamine/norepinephrine ratio, mesenteric artery [1] [mg/kg] | mean arterial pressure vs vehicle ([2]; 10 mg/kg oral) | heart rate vs vehicle ([2]; SCH-23390 200 μg/kg iv, nepicastat 10 mg/kg po) | antihypertensive effects of nepicastat after pretreatment with SCH-23390 ([2]; nepicastat 10 mg/kg po, SCH-23390 iv, hydrochloride) | body core temperature (body core temperature) |
| --- | --- | --- | --- | --- | --- | --- | --- | --- | --- | --- |
| Cl.NCc1c[nH]c(=S)n1[C@H]1CCc2c(F)cc(F)cc2C1 [nepicastat, (S)-5-Aminomethyl-1-(5,7-difluoro-1,2,3,4-tetrahydronaphth-2-yl)-2,3-dihydro-2-thioxo-1H-imidazole hydrochloride] | no difference | no significant effects on gross motor behavior | did not effect locomotor activity | 10 | 3.0 | 0.3 | significant decrease (p<0.05) in mean arterial pressure by 30 min post dose | did not decrease the heart rate as much as observed in vehicle treated animals | not attenuated; also recorded: did not significantly attenuate |  |
| Fc1cc(F)cc(Cn2cc[nH]c2=S)c1 [SKF 102698, reference compound] |  |  |  |  |  |  |  |  |  | Lack of Effect |
